Data: patent US9090776B2, “Squarylium dyes” (Exciton, Inc., priority 2012, dated 2015)

Assay: Solubility of squarylium dye in dichloromethane
Format: physicochemical
From the text: Subsequent conversion to the squarylium dye can yield desirable photophysical, solubility, thermal stability, and/or light stability properties. For example, as shown in the FIGURE, the ortho-, ortho- isomer of compound IV has a solubility of about 0.2 gm/L in dichloromethane, CH2Cl2. In comparison, the corresponding meta-, meta- and para-, para- isomers of compound have solubilities of about 0.6 gm/L and about 0.5 gm/L in CH2Cl2, respectively.

solubility in dichloromethane, CH2Cl2: about 0.6 gm/L
SMILES: CC1N(Cc2cccc(NC(=O)c3ccccc3)c2)c2cc(NC(=O)c3ccccc3)c(C3=C([O-])/C(=c4/cc5c(cc4NC(=O)c4ccccc4)=[N+](Cc4cccc(NC(=O)c6ccccc6)c4)C(C)C5(C)C)C3=O)cc2C1(C)C (stereo not drawn) [meta-, meta- isomer of compound IV]
